This test concerns BDF1 mice, P388 leukemia ip, median survival T/C. The test is described as follows: NCI In Vivo Anticancer Drug Screen. Data for tumor model P388 Leukemia (intraperitoneal) in B6D2F1 (BDF1) mice. The settings on record: endpoint: median survival time, higher = longer survival. In outline: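 Read-out is survival of treated animals expressed relative to the vehicle group, as a T/C ratio.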

Setting [1] is: dose: 25.0 mg/kg/injection, schedule: Q04DX002 (ip), vehicle: saline with Tween-80.
Setting [2] is: dose: 50.0 mg/kg/injection, schedule: Q04DX002 (ip), vehicle: saline with Tween-80.
The mark [3] stands for this setting: dose: 100.0 mg/kg/injection, schedule: Q04DX002 (ip), vehicle: saline with Tween-80.
The mark [4] stands for this setting: dose: 50.0 mg/kg/injection, schedule: Q01DX009 (ip), vehicle: saline with Tween-80.
Setting [5] is: dose: 100.0 mg/kg/injection, schedule: Q01DX009 (ip), vehicle: saline with Tween-80.
Where [6] appears, read: dose: 200.0 mg/kg/injection, schedule: Q01DX009 (ip), vehicle: saline with Tween-80.

The structures appear in SMILES notation. Where “and” joins values, the source holds several entries; their conditions need not be identical. Identical values can stand only once. Toxic doses and inconclusive results are not listed.

Turning to `CC1(C(=O)N2CC2)OC1c1ccccc1` (configuration not stated), the T/C runs as follows: under setting [1], 91 % of control; under setting [2], 98 % of control; under setting [3], 96 % of control and 100 % of control.

Regarding `CC(=O)[C@H]1CC[C@H]2[C@@H]3C[C@H](C)C4=CC(=O)CC[C@]4(C)[C@@]3(F)[C@@H](O)C[C@]12C`, the T/C is, setting by setting: (dose: 25.0 mg/kg/injection, schedule: Q01DX009 (ip), vehicle: saline with Tween-80) 118 % of control; under setting [4], 109 % of control; under setting [5], 104 % of control and 109 % of control.

As for `Cc1nnc2n1N=C(c1ccc(O)c(O)c1O)CS2`, the T/C runs as follows: under setting [4], 94 % of control; under setting [5], 93 % of control; under setting [6], 107 % of control.

Turning to `CC(=O)OC1(CSc2ccccc2)CCCCC1`, the T/C under setting [4] is 93 % of control.

Turning to `O=S(=O)(Nc1cc(Cl)c(NS(=O)(=O)c2ccccc2)cc1Cl)c1ccccc1`, the T/C is 95 % of control (dose: 100.0 mg/kg/injection, schedule: Q01DX001 (ip), vehicle: saline with Tween-80); 90 % of control (dose: 200.0 mg/kg/injection, schedule: Q01DX001 (ip), vehicle: saline with Tween-80); 86 % of control (dose: 400.0 mg/kg/injection, schedule: Q01DX001 (ip), vehicle: saline with Tween-80).

Take `C[C@H]1[C@H](C)CC[C@]2(CO)CC[C@]3(C)C(=CC[C@@H]4[C@@]5(C)CC[C@@H](O)C(C)(C)[C@@H]5CC[C@]43C)[C@H]12`: the T/C is 120 % of control (dose: 50.0 mg/kg/injection, schedule: Q01DX010 (ip), vehicle: acetone) and 110 % of control (dose: 400.0 mg/kg/injection, schedule: Q01DX010 (ip), vehicle: acetone).

Turning to `CC1(C)C2CC3C(=CCCC3(Cl)C#N)C1C2` (configuration not stated), the T/C runs as follows: (dose: 100.0 mg/kg/injection, schedule: Q04DX003 (ip), vehicle: Klucel (hydroxypropylcellulose) (HPC)) 100 % of control; (dose: 200.0 mg/kg/injection, schedule: Q04DX003 (ip), vehicle: Klucel (hydroxypropylcellulose) (HPC)) 95 % of control; (dose: 400.0 mg/kg/injection, schedule: Q04DX003 (ip), vehicle: Klucel (hydroxypropylcellulose) (HPC)) 95 % of control.

As for `COC(=O)C(CSCSC)NC(=O)/C=C/c1cc(OC)ccc1OC` (configuration not stated), the T/C by setting is: under setting [4], 93 % of control; under setting [5], 92 % of control; under setting [6], 88 % of control.

For `COC1OC(COC(C)=O)C(OC(C)=O)C(OC(C)=O)[CH]1[Hg][O]C(C)=O` (configuration not stated), the T/C by setting is: (dose: 3.13 mg/kg/injection, schedule: Q01DX009 (ip), vehicle: saline) 95 % of control; (dose: 6.25 mg/kg/injection, schedule: Q01DX009 (ip), vehicle: saline) 114 % of control.

In the case of `CCCCCCCCCCSC#N`, the T/C (dose: 20.0 mg/kg/injection, schedule: Q04DX003 (ip), vehicle: saline) is 87 % of control; the T/C (dose: 40.0 mg/kg/injection, schedule: Q04DX003 (ip), vehicle: saline) was 91 % of control; the T/C (dose: 80.0 mg/kg/injection, schedule: Q04DX003 (ip), vehicle: saline) is 91 % of control.

As to `CCS/C(N)=N\N`, the T/C by setting is: (dose: 12.5 mg/kg/injection, schedule: Q01DX009 (ip), vehicle: saline) 100 % of control; (dose: 25.0 mg/kg/injection, schedule: Q01DX009 (ip), vehicle: saline) 104 % of control; (dose: 25.0 mg/kg/injection, schedule: Q04DX003 (ip), vehicle: saline) 109 % of control; (dose: 50.0 mg/kg/injection, schedule: Q04DX003 (ip), vehicle: saline) 104 % of control.

In the case of `O=c1ccc2cc(-c3c(Oc4cc5ccc(O)cc5oc4=O)ccc4ccc(=O)oc34)c(O)cc2o1`, the T/C runs as follows: (dose: 3.0 mg/kg/injection, schedule: Q01DX009 (ip), vehicle: saline) 96 % of control; (dose: 6.0 mg/kg/injection, schedule: Q01DX009 (ip), vehicle: saline) 111 % of control; (dose: 12.0 mg/kg/injection, schedule: Q01DX009 (ip), vehicle: saline) 105 % of control.

`Nc1nc(N)c2nc(CNc3ccc(C(=O)NC(CCC(=O)O)C(=O)O)cc3)cnc2n1` (configuration not stated): the T/C (dose: 0.03 mg/kg/injection, schedule: Q01DX010 (ip), vehicle: other) was 90 % of control and 104 % of control; the T/C (dose: 0.05 mg/kg/injection, schedule: Q01DX010 (ip), vehicle: other) is 109 % of control and 115 % of control; the T/C (dose: 0.1 mg/kg/injection, schedule: Q01DX010 (ip), vehicle: other) was 118 % of control; the T/C (dose: 0.2 mg/kg/injection, schedule: Q01DX010 (ip), vehicle: other) is 163 % of control and 175 % of control.

Take `CCC1C/C(=C2/NC3CCCCC3NC2=O)C(=O)O1` (configuration not stated): the T/C under setting [1] is 101 % of control, the T/C under setting [2] is 98 % of control and the T/C under setting [3] was 88 % of control.

With `CCCCSC1=CC(=O)c2ccccc2C1=O`, the T/C by setting is: (dose: 3.12 mg/kg/injection, schedule: Q01DX009 (ip), vehicle: Klucel (hydroxypropylcellulose) (HPC)) 92 % of control and 104 % of control; (dose: 6.25 mg/kg/injection, schedule: Q01DX009 (ip), vehicle: Klucel (hydroxypropylcellulose) (HPC)) 100 % of control and 116 % of control; (dose: 12.5 mg/kg/injection, schedule: Q01DX009 (ip), vehicle: Klucel (hydroxypropylcellulose) (HPC)) 100 % of control and 107 % of control and 108 % of control.

As for `O=C1c2ccccc2C(=O)c2cc(S(=O)(=O)Cl)ccc21`, the T/C runs as follows: (dose: 100.0 mg/kg/injection, schedule: Q01DX001 (ip), vehicle: saline) 109 % of control; (dose: 200.0 mg/kg/injection, schedule: Q01DX001 (ip), vehicle: saline) 109 % of control; (dose: 400.0 mg/kg/injection, schedule: Q01DX001 (ip), vehicle: saline) 90 % of control.

`CC1OC(=O)C(C(C)C)NC(=O)C(C(C)C)OC(=O)C(C(C)C)NC(=O)C(C)OC(=O)C(C(C)C)NC(=O)C(C(C)C)OC(=O)C(C(C)C)NC(=O)C(C)OC(=O)C(C(C)C)NC(=O)C(C(C)C)OC(=O)C(C(C)C)NC1=O` (configuration not stated): the T/C (dose: 3.12 mg/kg/injection, schedule: Q04DX003 (ip), vehicle: Klucel (hydroxypropylcellulose) (HPC)) was 100 % of control; the T/C (dose: 4.5 mg/kg/injection, schedule: Q01DX009 (ip), vehicle: saline) was 162 % of control; the T/C (dose: 6.25 mg/kg/injection, schedule: Q04DX003 (ip), vehicle: Klucel (hydroxypropylcellulose) (HPC)) is 107 % of control; the T/C (dose: 10.0 mg/kg/injection, schedule: Q01DX009 (ip), vehicle: saline) is 183 % of control; the T/C (dose: 12.5 mg/kg/injection, schedule: Q04DX003 (ip), vehicle: Klucel (hydroxypropylcellulose) (HPC)) is 169 % of control; the T/C (dose: 15.0 mg/kg/injection, schedule: Q01DX009 (ip), vehicle: saline) is 177 % of control. Besides, under “dose: 20.0 mg/kg/injection, schedule: Q01DX009 (ip), vehicle: Klucel (hydroxypropylcellulose) (HPC)”, the T/C is 165 % of control.

For the compound `CC(=O)OCC(=O)[C@@]1(O)CC[C@H]2[C@@H]3C[C@H](C)C4=CC(=O)C=C[C@]4(C)[C@H]3[C@@H](O)C[C@@]21C`, the T/C was 104 % of control (dose: 100.0 mg/kg/injection, schedule: Q04DX003 (ip), vehicle: saline with Tween-80); 104 % of control (dose: 200.0 mg/kg/injection, schedule: Q04DX003 (ip), vehicle: saline with Tween-80); 100 % of control (dose: 400.0 mg/kg/injection, schedule: Q04DX003 (ip), vehicle: saline with Tween-80).

As for `O=C(NCCNCc1ccccc1)c1ccccc1`, the T/C runs as follows: (dose: 12.5 mg/kg/injection, schedule: Q01DX009 (ip), vehicle: water) 96 % of control; (dose: 12.5 mg/kg/injection, schedule: Q04DX003 (ip), vehicle: water) 92 % of control; (dose: 16.0 mg/kg/injection, schedule: Q01DX009 (ip), vehicle: water) 100 % of control; (dose: 25.0 mg/kg/injection, schedule: Q01DX009 (ip), vehicle: water) 99 % of control and 122 % of control; (dose: 25.0 mg/kg/injection, schedule: Q04DX003 (ip), vehicle: water) 95 % of control and 99 % of control; (dose: 40.0 mg/kg/injection, schedule: Q01DX009 (ip), vehicle: water) 113 % of control. Moreover, the T/C reads like this: (dose: 50.0 mg/kg/injection, schedule: Q01DX009 (ip), vehicle: water) 103 % of control; (dose: 50.0 mg/kg/injection, schedule: Q04DX003 (ip), vehicle: water) 97 % of control; (dose: 100.0 mg/kg/injection, schedule: Q01DX009 (ip), vehicle: water) 90 % of control; (dose: 100.0 mg/kg/injection, schedule: Q04DX003 (ip), vehicle: water) 95 % of control and 99 % of control.

For `CCCCCCC(=O)/C=C/c1ccccc1OC`, the T/C is 90 % of control under setting [4], 99 % of control under setting [5] and 117 % of control under setting [6].

`O=C1NC(c2cccc3ccccc23)Nc2ccc(Cl)cc21` (configuration not stated): the T/C runs as follows: (dose: 50.0 mg/kg/injection, schedule: Q01DX009 (ip), vehicle: Klucel (hydroxypropylcellulose) (HPC)) 160 % of control; (dose: 75.0 mg/kg/injection, schedule: Q01DX009 (ip), vehicle: Klucel (hydroxypropylcellulose) (HPC)) 155 % of control; (dose: 100.0 mg/kg/injection, schedule: Q01DX009 (ip), vehicle: Klucel (hydroxypropylcellulose) (HPC)) 111 % of control.
